≈ marks a conversion by molar mass, not a printed value. Where “and” joins values, the source holds several entries; their conditions need not be identical. Identical values can stand only once. Like-named read-outs stand apart in the source and are kept apart here.
Tests used:
[1] = tested on: MRS USA 300; test: IC50, MIC and MBC against MRS USA 300; format: cell-based, Staphylococcus aureus
Protocol: (§1) As used herein, the term “minimum inhibitory concentration (MIC)” refers to the lowest concentration of an antimicrobial agent that will inhibit the visible growth of a microorganism after overnight incubation. MIC values against bacteria may be determined by standard methods. See also P. A. Wayne, Methods for Dilution Antimicrobial Tests for Bacteria that Grow Aerobically; Approved Standard, Ninth Edition, 2012, CLSI Document M07-A9, Vol. 32 No. 2, which is incorporated by reference herein in its entirety.

[2] = tested on: MRS 1708 (Mupirocin-resistant); test: IC50, MIC and MBC against MRS 1708 (Mupirocin-resistant); format: cell-based, Staphylococcus aureus; settings: for IC50 / MBC / MIC: Staphylococcus aureus
Protocol: as §1

[3] = tested on: MRS 33591; test: IC50, MIC and MBC against MRS 33591; format: cell-based, Staphylococcus aureus
Protocol: as §1

[4] = tested on: Mupirocin-resistant MRS; format: cell-based, Staphylococcus aureus; settings: in combination with Mupirocin
[5] = tested on: S. aureus 29213; test: IC50, MIC and MBC against S. aureus 29213; format: cell-based; settings: Staphylococcus aureus; for IC50: 29213; for MIC: S. aureus 29213, tested Conc. in μg/mL, read-out: MIC
Protocol: As used herein, the term “minimum inhibitory concentration (MIC)” refers to the lowest concentration of an antimicrobial agent that will inhibit the visible growth of a microorganism after overnight incubation. MIC values against bacteria may be determined by standard methods.

[6] = tested on: MRS 1696; test: Growth inhibition of cannabinoid combinations, IC50s chosen for FICs, MRS 1696; format: cell-based; settings: Staphylococcus aureus
[7] = tested on: MRS 1708; test: Growth inhibition of cannabinoid combinations, IC50s chosen for FICs, MRS 1708; format: cell-based; settings: Staphylococcus aureus
[8] = tested on: MRS 1717; test: Growth inhibition of cannabinoid combinations, IC50s chosen for FICs, MRS 1717; format: cell-based; settings: Staphylococcus aureus
[9] = tested on: MRS 33591; test: Growth inhibition of cannabinoid combinations, IC50s chosen for FICs, MRS 33591; format: cell-based; settings: Staphylococcus aureus
[10] = tested on: MRS USA 400; test: IC50, MIC and MBC against MRS USA 400; format: cell-based, Staphylococcus aureus
Protocol: as §1

[11] = MRS USA 300, tested Conc. in μg/mL
[12] = MRS 33591, tested Conc. in μg/mL
[13] = read-out: IC50, Cannabidiol (CBD) + Cannabinol (CBN)
[14] = read-out: IC50, Cannabinol (CBN) + Cannabigerol (CBG)
[15] = IC50 of first-named cannabinoid at the fixed ug/mL of the second given in the label, read-out: IC50, Cannabinol (CBN) + Cannabigerol (CBG)
[16] = read-out: IC50, Cannabidiol (CBD) + Cannabinol (CBN), IC50 of first-named cannabinoid at the fixed ug/mL of the second given in the label
[17] = MRS USA 400, tested Conc. in μg/mL
[18] = read-out: IC50, Cannabidiol (CBD) + Cannabigerol (CBG)
[19] = read-out: IC50, Cannabidiol (CBD) + Cannabigerol (CBG), IC50 of first-named cannabinoid at the fixed ug/mL of the second given in the label

| Structure (SMILES) | MBC [1, 11] | MIC [1, 11] | IC50 ([1]; Staphylococcus aureus, USA300) | MBC ([1]; Staphylococcus aureus, USA300) | MIC ([1]; Staphylococcus aureus, USA300) | IC50 [2] | MBC [2] | MIC [2] | MBC [3, 12] | IC50 ([3]; Staphylococcus aureus) | MBC ([3]; Staphylococcus aureus) | MIC ([3]; Staphylococcus aureus) | effect of combination with Mupirocin [4] | IC50 [5] | MIC [5] | IC50 [6, 13] | IC50 [6, 14] | MIC [10, 17] | IC50 ([10]; Staphylococcus aureus, USA400) | MIC ([10]; Staphylococcus aureus, USA400) | further results |
| --- | --- | --- | --- | --- | --- | --- | --- | --- | --- | --- | --- | --- | --- | --- | --- | --- | --- | --- | --- | --- | --- |
| CCCCCc1cc(O)c2c(c1)OC(C)(C)c1ccc(C)cc1-2 [CNB, Cannabinol] | 3.33 | 2.5 ± 0 | 3.32 µM and 1.03 µg/mL | 10.7 ± 4.64 µM (≈ 3.33 µg/mL) | 8.05 µM (≈ 2.5 µg/mL) | 2.77 µM and 0.86 µg/mL | 6.7 ± 2.32 µM (≈ 2.08 µg/mL) | 5.38 ± 7.32 µM (≈ 1.67 µg/mL) | 4.17 | 2.48 µM and 0.77 µg/mL | 13.4 ± 4.64 µM (≈ 4.17 µg/mL) | 4.03 µM and 1.25 µg/mL | no effect | 0.92 µg/mL (≈ 2.96 µM) | 1.67 µg/mL (≈ 5.38 µM) | 1.5 µg/mL | 1.32 µg/mL | 2.5 ± 0 | 4.16 µM and 1.29 µg/mL | 8.05 µM (≈ 2.5 µg/mL) | AMC ([2]; Mupirocin-resistant MRS (Table 11)): 2.08 ± 0.72; IC50 [7, 15]: 1.07 µg/mL; IC50 [7, 16]: 0.956 µg/mL; IC50 [8, 13]: 0.908 µg/mL; IC50 [8, 14]: 1.11 µg/mL; IC50 [9, 13]: 1.09 µg/mL; IC50 [9, 14]: 1.11 µg/mL; MBC [10, 17]: 5.83 ± 3.82; MBC ([10]; Staphylococcus aureus, USA400): 18.8 ± 12.3 µM (≈ 5.83 µg/mL) |
| C=C(C)[C@@H]1CCC(C)=C[C@H]1c1c(O)cc(CCCCC)cc1O [CBD, Cannabidiol] | 3.33 | 1.67 | 2.99 µM and 0.94 µg/mL | 10.6 ± 4.58 µM (≈ 3.33 µg/mL) | 5.31 ± 2.29 µM (≈ 1.67 µg/mL) | 2.86 µM and 0.9 µg/mL | 10.6 ± 4.58 µM (≈ 3.33 µg/mL) | 5.31 ± 2.29 µM (≈ 1.67 µg/mL) |  | 3.24 µM and 1.02 µg/mL |  | 6.61 µM and 2.08 µg/mL | no effect | 1.16 µg/mL (≈ 3.69 µM) | 2.08 µg/mL (≈ 6.61 µM) | 1.36 µg/mL |  | 2.5 ± 0 | 3.69 µM and 1.16 µg/mL | 7.95 µM (≈ 2.5 µg/mL) | IC50 [6, 18]: 1.28 µg/mL; IC50 [7, 19]: 0.96 µg/mL; IC50 [7, 16]: 1.06 µg/mL; IC50 [8, 18]: 0.864 µg/mL; IC50 [8, 13]: 1.1 µg/mL; IC50 [9, 18]: 1.23 µg/mL; IC50 [9, 13]: 1.28 µg/mL |
| CCCCCc1cc(O)c(C/C=C(\C)CCC=C(C)C)c(O)c1 [CBG, Cannabigerol] |  | 1.67 | 2.43 µM and 0.77 µg/mL | > 63 µM | 5.28 ± 2.27 µM (≈ 1.67 µg/mL) | 2.34 µM and 0.74 µg/mL | > 63 µM | 3.95 µM (≈ 1.25 µg/mL) | 3.75 | 2.31 µM and 0.73 µg/mL | 11.8 ± 5.59 µM (≈ 3.75 µg/mL) | 3.95 µM and 1.25 µg/mL | no effect | 0.75 µg/mL (≈ 2.37 µM) | 1.25 µg/mL (≈ 3.95 µM) |  | 0.896 µg/mL | 1.67 | 2.72 µM and 0.86 µg/mL | 5.28 ± 2.27 µM (≈ 1.67 µg/mL) | IC50 [6, 18]: 0.9 µg/mL; IC50 [7, 15]: 0.872 µg/mL; IC50 [7, 19]: 0.959 µg/mL; IC50 [8, 18]: 0.741 µg/mL; IC50 [8, 14]: 0.911 µg/mL; IC50 [9, 18]: 1.08 µg/mL; IC50 [9, 14]: 1.05 µg/mL; MBC ([10]; Staphylococcus aureus, USA400): > 63 µM |

Reference: patent publication US20210315837A1, “CANNABINOIDS FOR THE TREATMENT OF GRAM-POSITIVE INFECTIONS INCLUDING ANTIBIOTIC-RESISTANT BACTERIAL STRAINS” (priority 2018, published 2021)
